pIC50: −log10 of the molar value. Counter-ions that a name gives are not always drawn.
How the values were obtained:
OXA-48 = molecular target: T1, OXA-48 (Klebsiella pneumoniae, UniProt Q6XEC0); experiment: β-lactamase inhibitory activity, determination of IC50 (nitrocefin hydrolysis); format: biochemical; conditions: class (D); nitrocefin 200 μM, 30 min pre-incubation; read-out: IC50 β-lactamase OXA-48
T1 construct: made in house; host or cells: E. coli

OXA-15 = molecular target: T2, OXA-15 (Pseudomonas aeruginosa, UniProt Q51574); experiment: biochemical
T2 construct: made in house; host or cells: E. coli
T2 sequence (Q51574 22-275): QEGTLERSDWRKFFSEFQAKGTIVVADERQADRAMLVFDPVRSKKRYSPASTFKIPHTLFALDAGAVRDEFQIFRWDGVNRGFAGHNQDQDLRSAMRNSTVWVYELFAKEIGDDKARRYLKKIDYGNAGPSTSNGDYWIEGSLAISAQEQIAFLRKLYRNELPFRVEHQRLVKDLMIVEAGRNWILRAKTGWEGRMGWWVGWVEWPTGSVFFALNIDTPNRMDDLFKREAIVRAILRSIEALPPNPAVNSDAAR

[1] = tested on: E. cloacae UFR51 (SHV-12, IMP-8); experiment: MIC of ceftazidime (CAZ) in combination with compounds at 4 μg/mL, broth microdilution; format: cell-based; conditions: strain UFR51; MIC of CAZ with compound fixed at 4 μg/mL
In short: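 Compounds were dissolved in DMSO and spotted onto plates. Log-phase cells were then added at 5×10^5 cfu/mL in cation-adjusted Mueller-Hinton broth, incubated 16-20 h at 35° C, and the MIC was scored visually as the lowest growth-inhibiting concentration.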

KPC-2 = molecular target: T3, KPC-2 (Klebsiella pneumoniae, UniProt Q9F663); experiment: β-lactamase inhibitory activity, determination of IC50 (nitrocefin hydrolysis); format: biochemical; conditions: class (A); nitrocefin 200 μM, 30 min pre-incubation; read-out: IC50 β-lactamase KPC-2
T3 construct: made in house; host or cells: E. coli
T3 sequence (Q9F663 25-293 limits assumed): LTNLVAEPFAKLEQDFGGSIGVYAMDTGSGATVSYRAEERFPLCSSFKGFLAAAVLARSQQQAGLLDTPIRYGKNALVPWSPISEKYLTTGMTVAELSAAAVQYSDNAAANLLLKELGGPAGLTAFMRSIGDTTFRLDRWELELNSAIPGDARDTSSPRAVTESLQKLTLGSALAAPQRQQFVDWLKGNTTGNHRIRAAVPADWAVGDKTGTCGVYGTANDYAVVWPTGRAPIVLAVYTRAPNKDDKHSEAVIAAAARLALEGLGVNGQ

[2] = tested on: P. aeruginosa CIP107051 (TEM-24); experiment: MIC of compounds alone, broth microdilution; format: cell-based; conditions: Pseudomonas aeruginosa; strain CIP107051 (P. aeruginosa); read-out: MIC compounds of the invention alone
In short: (§1)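 MICs of compounds without ceftazidime were measured by CLSI broth microdilution in cation-adjusted Mueller-Hinton broth. Growth was checked by eye after 16-20 h at 35° C.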

[3] = tested on: E. cloacae UFR51 (SHV-12, IMP-8); experiment: MIC of compounds alone, broth microdilution; format: cell-based; conditions: Enterobacter cloacae; strain UFR51 (E. cloacae); read-out: MIC compounds of the invention alone
In short: as §1

[4] = tested on: E. coli 131119 (TEM-1, OXA-48); experiment: MIC of compounds alone, broth microdilution; format: cell-based; conditions: Escherichia coli; strain 131119 (E. coli); read-out: MIC compounds of the invention alone
In short: as §1

E. cloacae P99 (AmpC) = experiment: MIC of compounds alone, broth microdilution; format: cell-based; conditions: Enterobacter cloacae; strain P99 (E. cloacae); read-out: MIC compounds of the invention alone
In short: as §1

[5] = tested on: K. pneumoniae BAA-1898 (TEM-1, SHV-11, SHV-12, KPC-2); experiment: MIC of compounds alone, broth microdilution; format: cell-based; conditions: Klebsiella pneumoniae, BAA1898; strain BAA-1898 (K. pneumoniae); read-out: MIC compounds of the invention alone
In short: as §1

[6] = tested on: K. oxytoca UFR21 (TEM-1, CTX-M-15, OXA-48); experiment: MIC of compounds alone, broth microdilution; format: cell-based; conditions: Klebsiella oxytoca, read-out: MIC compounds of the invention alone
In short: as §1

[7] = tested on: K. pneumoniae UFR24 (TEM-1, SHV-2, SHV-11, OXA-1, OXA-48, OXA-47); experiment: MIC of compounds alone, broth microdilution; format: cell-based; conditions: Klebsiella pneumoniae; strain UFR24 (K. pneumoniae); read-out: MIC compounds of the invention alone
In short: as §1

[8] = tested on: K. pneumoniae 200047 (TEM-1, SHV-32, CTX-M-15, OXA-1); experiment: MIC of compounds alone, broth microdilution; format: cell-based; conditions: Klebsiella pneumoniae, read-out: MIC compounds of the invention alone
In short: as §1

[9] = tested on: E. coli UFR32 (TEM-1, VEB-1, OXA-10); experiment: MIC of compounds alone, broth microdilution; format: cell-based; conditions: Escherichia coli; strain UFR32 (E. coli); read-out: MIC compounds of the invention alone
In short: as §1

[10] = tested on: K. pneumoniae UFR39 (CTX-M-15, NDM-1); experiment: MIC of compounds alone, broth microdilution; format: cell-based; conditions: Klebsiella pneumoniae; strain UFR39 (K. pneumoniae); read-out: MIC compounds of the invention alone
In short: as §1

[11] = tested on: E. coli UFR61O (TEM-1, KPC-2); experiment: MIC of compounds alone, broth microdilution; format: cell-based; conditions: Escherichia coli; strain UFR61O (E. coli); read-out: MIC compounds of the invention alone
In short: as §1

[12] = tested on: E. coli UFR18 (CTX-M-15, OXA-204); experiment: MIC of compounds alone, broth microdilution; format: cell-based; conditions: Escherichia coli; strain UFR18 (E. coli); read-out: MIC compounds of the invention alone
In short: as §1

[13] = tested on: K. pneumoniae 6299 (TEM-1, SHV-11, OXA-163); experiment: MIC of compounds alone, broth microdilution; format: cell-based; conditions: Klebsiella pneumoniae; strain 6299 (K. pneumoniae); read-out: MIC compounds of the invention alone
In short: as §1

[14] = tested on: E. coli UFR41 (TEM-1, CTX-M-15, CMY-2, OXA-1, NDM-4); experiment: MIC of compounds alone, broth microdilution; format: cell-based; conditions: Escherichia coli, read-out: MIC compounds of the invention alone
In short: as §1

E. coli RGN238 (OXA-1) = experiment: MIC of compounds alone, broth microdilution; format: cell-based; conditions: Escherichia coli; strain RGN238 (E. coli); read-out: MIC compounds of the invention alone
In short: as §1

[15] = tested on: K. pneumoniae 160143 (TEM-1, SHV-1, CTX-M-15, KPC-2, OXA-1); experiment: MIC of compounds alone, broth microdilution; format: cell-based; conditions: Klebsiella pneumoniae, read-out: MIC compounds of the invention alone
In short: as §1

[16] = tested on: K. pneumoniae UFR77 (CMY-2); experiment: MIC of compounds alone, broth microdilution; format: cell-based; conditions: Klebsiella pneumoniae; strain UFR77 (K. pneumoniae); read-out: MIC compounds of the invention alone
In short: as §1

[17] = tested on: E. coli UFR74 (SHV-1, DHA-1); experiment: MIC of compounds alone, broth microdilution; format: cell-based; conditions: Escherichia coli; strain UFR74 (E. coli); read-out: MIC compounds of the invention alone
In short: as §1

CTX-M-15 = molecular target: T4, CTX-M-15 (Escherichia coli, UniProt Q9EXV5); experiment: β-lactamase inhibitory activity, determination of IC50 (nitrocefin hydrolysis); format: biochemical; conditions: class (A); nitrocefin 200 μM, 30 min pre-incubation; read-out: IC50 β-lactamase CTX-M-15
T4 construct: made in house; host or cells: E. coli
T4 sequence (Q9EXV5 entry or part of it): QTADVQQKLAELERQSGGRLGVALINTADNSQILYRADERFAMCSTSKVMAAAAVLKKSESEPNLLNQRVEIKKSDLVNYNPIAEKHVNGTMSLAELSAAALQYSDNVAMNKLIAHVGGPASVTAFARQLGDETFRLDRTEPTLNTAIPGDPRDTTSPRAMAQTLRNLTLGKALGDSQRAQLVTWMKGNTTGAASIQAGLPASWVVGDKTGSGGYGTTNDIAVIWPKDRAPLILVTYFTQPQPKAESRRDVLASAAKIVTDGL

T1 sequence (Q6XEC0 23-265 limits assumed): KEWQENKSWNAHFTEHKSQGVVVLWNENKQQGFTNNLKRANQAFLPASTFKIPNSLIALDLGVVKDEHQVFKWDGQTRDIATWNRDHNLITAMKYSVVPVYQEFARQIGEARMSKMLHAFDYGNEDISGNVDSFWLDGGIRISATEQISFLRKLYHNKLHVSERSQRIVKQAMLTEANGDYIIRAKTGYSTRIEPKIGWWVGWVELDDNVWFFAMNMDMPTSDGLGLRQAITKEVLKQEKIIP

| Structure (SMILES) | pIC50 (OXA-48) | pIC50 (OXA-15) | MIC combination of CAZ and compounds of the invention at 4 μg/mL [1] | pIC50 (KPC-2) | MIC [2] | MIC [3] | MIC [4] | MIC (E. cloacae P99 (AmpC)) | MIC [5] | MIC [6] | MIC [7] | MIC [8] | MIC [9] | MIC [10] | MIC [11] | MIC [12] | MIC [13] | MIC [14] | MIC (E. coli RGN238 (OXA-1)) | MIC [15] | other results |
| --- | --- | --- | --- | --- | --- | --- | --- | --- | --- | --- | --- | --- | --- | --- | --- | --- | --- | --- | --- | --- | --- |
| O=C1N2CC=C(c3cnco3)C(C2)N1OS(=O)(=O)[O-].[Na+] (stereo not shown) [Example 3, Sodium [4-(oxazol-5-yl)-7-oxo-1,6-diazabicyclo[3.2.1]oct-3-en-6-yl]sulfate] | 8.46 | 7.48 | <0.25 µg/mL | 6.54 | > 32 µg/mL | 2 µg/mL | 4 µg/mL | 8 µg/mL | > 32 µg/mL | > 32 µg/mL | > 32 µg/mL | > 32 µg/mL | > 32 µg/mL | 4 µg/mL | 16 µg/mL | 2 µg/mL | > 32 µg/mL | > 32 µg/mL | 16 µg/mL | > 32 µg/mL | MIC [16]: > 32 µg/mL; MIC [17]: > 32 µg/mL; pIC50 (CTX-M-15): 8.55 |
| Cn1cc(C2=CCN3CC2N(OS(=O)(=O)[O-])C3=O)cnc1=O.[Na+] (stereo not shown) [Example 15, Sodium [4-(N-methyl-2-oxo-pyrimidin-5-yl)-7-oxo-1,6-diazabicyclo[3.2.1]oct-3-en-6-yl] sulfate] | 8.10 | 6.54 | 1 µg/mL | 6.96 | > 32 µg/mL | 0.5 µg/mL | 4 µg/mL | 2 µg/mL | > 32 µg/mL | 32 µg/mL | > 32 µg/mL | > 32 µg/mL | 1 µg/mL | 0.5 µg/mL | 8 µg/mL | 0.5 µg/mL | > 32 µg/mL | > 32 µg/mL | 16 µg/mL | > 32 µg/mL | MIC [16]: > 32 µg/mL; MIC [17]: > 32 µg/mL; pIC50 (CTX-M-15): 8.20 |
| Cn1ncc(C2=CCN3CC2N(OS(=O)(=O)[O-])C3=O)cc1=O.[Na+] (stereo not shown) [Example 19, Sodium [4-(1-methyl-6-oxo-pyridazin-4-yl)-7-oxo-1,6-diazabicyclo[3.2.1]oct-3-en-6-yl] sulfate] | 8.33 | 7.12 | <0.25 µg/mL | 7.34 | > 32 µg/mL | 4 µg/mL | 2 µg/mL | 8 µg/mL | > 32 µg/mL | > 32 µg/mL | > 32 µg/mL | > 32 µg/mL | > 32 µg/mL | 4 µg/mL | > 32 µg/mL | 4 µg/mL | > 32 µg/mL | > 32 µg/mL | 32 µg/mL | > 32 µg/mL | MIC [16]: > 32 µg/mL; MIC [17]: > 32 µg/mL; pIC50 (CTX-M-15): 8.27 |
| O=C1N2CC(c3ncco3)=CC(C2)N1OS(=O)(=O)[O-].[Na+] (stereo not shown) [Example 25, Sodium [3-(oxazol-2-yl)-7-oxo-1,6-diazabicyclo[3.2.1]oct-3-en-6-yl]sulfate] | 8.18 | 6.52 | <0.25 µg/mL | 7.52 | > 128 µg/mL | 4 µg/mL | 2 µg/mL | 8 µg/mL | 4 µg/mL | 4 µg/mL | 4 µg/mL | 2 µg/mL | 2 µg/mL | 8 µg/mL | 8 µg/mL | 2 µg/mL | 8 µg/mL | 16 µg/mL | 2 µg/mL | 4 µg/mL | MIC [16]: 4 µg/mL; MIC [17]: 4 µg/mL; pIC50 (CTX-M-15): 7.82 |
| NCc1cnc(C2=CC3CN(C2)C(=O)N3OS(=O)(=O)O)s1 (stereo not shown) [Example 38, [3-[5-(aminomethyl)thiazol-2-yl]-7-oxo-1,6-diazabicyclo[3.2.1]oct-3-en-6-yl] hydrogen sulfate] | 8.11 | 6.55 | <0.25 µg/mL | 7.72 | > 32 µg/mL | 1 µg/mL | 4 µg/mL | 4 µg/mL | > 32 µg/mL | 16 µg/mL | > 32 µg/mL | 8 µg/mL | 32 µg/mL | 0.5 µg/mL | 2 µg/mL | 0.5 µg/mL | > 32 µg/mL | 1 µg/mL | 32 µg/mL | 8 µg/mL | MIC [16]: 32 µg/mL; MIC [17]: 32 µg/mL; pIC50 (CTX-M-15): 9.10 |

From patent publication US10183943B2, “Heterocyclic compounds and their use in preventing or treating bacterial infections” (MUTABILIS, priority 2015, dated 2019)
